One block for each compound: values may come before it.
Assay: Franz skin diffusion cell permeation (percutaneous absorption) under ambient, natural or pulsed incoherent LED light
Conditions: for Permeation Dark: ambient light absent; for Permeation Ctrl: ambient cool fluorescent light only, 260-750 nm, 120 cps; for Permeation Ctrl-TiO2: ambient fluorescent light, sample with 2% (w/w) rutile TiO2; for Ctrl: ambient light only; for Ctrl-TiO2: ambient light, 2% TiO2; for Ctrl-TiO2/1.7 / Ctrl-TiO2/9.7 / Ctrl-TiO2/24: Table 7, 350 nm series; for Ctrl-TiO2/1.7: 2% TiO2, 1.7 cps; for Ctrl-TiO2/9.7: 2% TiO2, 9.7 cps; for Ctrl-TiO2/24: 2% TiO2, 24 cps; for 350/1.7 / 350/9.7 / 350/24: Table 7; for 350/1.7 / 405/1.7: 1.7 cps; for 350/9.7 / 405/9.7: 9.7 cps; for 350/24 / 405/24: 24 cps; for 405/1.7 / 405/9.7 / 405/24: Table 10
[1] = 350 + TiO2, 24 cps vs Dark-TiO2
[2] = 350 + TiO2, 80 cps vs Dark-TiO2
[3] = 390 + TiO2, 24 cps vs Dark-TiO2
[4] = 390 + TiO2, 80 cps vs Dark-TiO2
[5] = 405 + TiO2, 24 cps vs Dark-TiO2
[6] = 405 + TiO2, 80 cps vs Dark-TiO2
[7] = 450 + TiO2, 24 cps vs Dark-TiO2
[8] = 450 + TiO2, 80 cps vs Dark-TiO2
[9] = Dark-TiO2 control (2% TiO2), 24 cps series
[10] = Dark-TiO2 control (2% TiO2), 80 cps series
[11] = Day (natural daylight, not pulsed), control of the 24 cps series
[12] = Day (natural daylight, not pulsed), control of the 80 cps series
[13] = Day-TiO2 (natural daylight, 2% TiO2, not pulsed), control of the 24 cps series
[14] = Day-TiO2 (natural daylight, 2% TiO2, not pulsed), control of the 80 cps series
[15] = Day-TiO2 vs Dark-TiO2, 24 cps series
[16] = Day-TiO2 vs Dark-TiO2, 80 cps series

SMILES: Cn1c(=O)c2c(ncn2C)n(C)c1=O [Compound 9, Caffeine]
- Permeation Dark (Dark control): 269.40 μg/0.64 cm^2/25 hrs
- Permeation Ctrl: 168.70 μg/0.64 cm^2/25 hrs
- Permeation Ctrl-TiO2: 47.22 μg/0.64 cm^2/25 hrs

- Ctrl (Table 7 (350 nm series)): 0.00
- Ctrl-TiO2 (Table 7 (350 nm series)): 0.00
- Ctrl-TiO2/1.7: 42.75
- Ctrl-TiO2/9.7: 6.48
- Ctrl-TiO2/24: 0.00
- 350/1.7 (350 nm): 3.33
- 350/9.7 (350 nm): 0.00
- 350/24 (350 nm): 0.00
SMILES: O=C1O[C@H]([C@@H](O)CO)C([O-])=C1OP(=O)([O-])[O-].[Na+].[Na+].[Na+] [Compound 2, Sodium ascorbyl phosphate]

SMILES: CC(C)C[C@H](NC(=O)[C@H](Cc1ccccc1)NC(=O)CNC(=O)CNC(=O)[C@@H](N)Cc1ccc(O)cc1)C(=O)O [Compound 14, Leucine Enkephalin (Tyr-Gly-Gly-Phe-Leu)]
- % Permeation (percent increase or decrease vs dark baseline, equation 1) [1]: 8.58%
- % Permeation (percent increase or decrease vs dark baseline, equation 1) [2]: 39.43%
- Permeation (350 + TiO2, pulse rate 24 cps): 73.17 μg/cm^2/24 hrs
- Permeation (350 + TiO2, pulse rate 80 cps): 28.50 μg/cm^2/24 hrs
- Permeation (350 nm LED, pulse rate 24 cps): 84.44 μg/cm^2/24 hrs
- Permeation (350 nm LED, pulse rate 80 cps): 31.30 μg/cm^2/24 hrs
- % Permeation (percent increase or decrease vs dark baseline, equation 1) (350 nm, 24 cps vs Dark): −21.59%
- % Permeation (percent increase or decrease vs dark baseline, equation 1) (350 nm, 80 cps vs Dark): 72.36%
- % Permeation (percent increase or decrease vs dark baseline, equation 1) [3]: 54.21%
- % Permeation (percent increase or decrease vs dark baseline, equation 1) [4]: 55.14%
- Permeation (390 + TiO2, pulse rate 24 cps): 103.92 μg/cm^2/24 hrs
- Permeation (390 + TiO2, pulse rate 80 cps): 31.71 μg/cm^2/24 hrs
- Permeation (390 nm LED, pulse rate 24 cps): 108.49 μg/cm^2/24 hrs
- Permeation (390 nm LED, pulse rate 80 cps): 31.32 μg/cm^2/24 hrs
- % Permeation (percent increase or decrease vs dark baseline, equation 1) (390 nm, 24 cps vs Dark): 0.74%
- % Permeation (percent increase or decrease vs dark baseline, equation 1) (390 nm, 80 cps vs Dark): 72.47%
- % Permeation (percent increase or decrease vs dark baseline, equation 1) [5]: 322.29%
- % Permeation (percent increase or decrease vs dark baseline, equation 1) [6]: −35.47%
- Permeation (405 + TiO2, pulse rate 24 cps): 284.58 μg/cm^2/24 hrs
- Permeation (405 + TiO2, pulse rate 80 cps): 13.19 μg/cm^2/24 hrs
- Permeation (405 nm LED, pulse rate 24 cps): 87.52 μg/cm^2/24 hrs
- Permeation (405 nm LED, pulse rate 80 cps): 20.82 μg/cm^2/24 hrs
- % Permeation (percent increase or decrease vs dark baseline, equation 1) (405 nm, 24 cps vs Dark): −18.73%
- % Permeation (percent increase or decrease vs dark baseline, equation 1) (405 nm, 80 cps vs Dark): 14.65%
- % Permeation (percent increase or decrease vs dark baseline, equation 1) [7]: 158.04%
- % Permeation (percent increase or decrease vs dark baseline, equation 1) [8]: 45.45%
- Permeation (450 + TiO2, pulse rate 24 cps): 173.89 μg/cm^2/24 hrs
- Permeation (450 + TiO2, pulse rate 80 cps): 29.73 μg/cm^2/24 hrs
- Permeation (450 nm LED, pulse rate 24 cps): 29.25 μg/cm^2/24 hrs
- Permeation (450 nm LED, pulse rate 80 cps): 21.81 μg/cm^2/24 hrs
- % Permeation (percent increase or decrease vs dark baseline, equation 1) (450 nm, 24 cps vs Dark): −72.84%
- % Permeation (percent increase or decrease vs dark baseline, equation 1) (450 nm, 80 cps vs Dark): 20.10%
- Permeation Dark (Dark control): 41.68 μg/0.64 cm^2/25 hrs
- Permeation (Dark control, 24 cps series): 107.69 μg/cm^2/24 hrs
- Permeation (Dark control, 80 cps series): 18.16 μg/cm^2/24 hrs
- Permeation [9]: 67.39 μg/cm^2/24 hrs
- Permeation [10]: 20.44 μg/cm^2/24 hrs
- Permeation [11]: 37.31 μg/cm^2/24 hrs
- Permeation [12]: 20.89 μg/cm^2/24 hrs
- % Permeation (percent increase or decrease vs dark baseline, equation 1) (Day vs Dark, 24 cps series): −65.35%
- % Permeation (percent increase or decrease vs dark baseline, equation 1) (Day vs Dark, 80 cps series): 15.03%
- Permeation [13]: 46.85 μg/cm^2/24 hrs
- Permeation [14]: 18.64 μg/cm^2/24 hrs
- % Permeation (percent increase or decrease vs dark baseline, equation 1) [15]: −30.48%
- % Permeation (percent increase or decrease vs dark baseline, equation 1) [16]: −8.81%
- 405/1.7 (405 nm): 40.38
- 405/9.7 (405 nm): 1.23
- 405/24 (405 nm): 0.00
- Ctrl (Table 10 peptides): 0.00
- Permeation Ctrl: 0.00 μg/0.64 cm^2/25 hrs
- Permeation Ctrl-TiO2: 0.00 μg/0.64 cm^2/25 hrs

- % Permeation (percent increase or decrease vs dark baseline, equation 1) [1]: 66.64%
- % Permeation (percent increase or decrease vs dark baseline, equation 1) [2]: 65.49%
- Permeation (350 + TiO2, pulse rate 24 cps): 18.98 μg/cm^2/24 hrs
- Permeation (350 + TiO2, pulse rate 80 cps): 16.45 μg/cm^2/24 hrs
- Permeation (350 nm LED, pulse rate 24 cps): 22.69 μg/cm^2/24 hrs
- Permeation (350 nm LED, pulse rate 80 cps): 17.41 μg/cm^2/24 hrs
- % Permeation (percent increase or decrease vs dark baseline, equation 1) (350 nm, 24 cps vs Dark): 50.96%
- % Permeation (percent increase or decrease vs dark baseline, equation 1) (350 nm, 80 cps vs Dark): 94.09%
- % Permeation (percent increase or decrease vs dark baseline, equation 1) [3]: 11.76%
- % Permeation (percent increase or decrease vs dark baseline, equation 1) [4]: 95.88%
- Permeation (390 + TiO2, pulse rate 24 cps): 12.73 μg/cm^2/24 hrs
- Permeation (390 + TiO2, pulse rate 80 cps): 19.47 μg/cm^2/24 hrs
- Permeation (390 nm LED, pulse rate 24 cps): 21.47 μg/cm^2/24 hrs
- Permeation (390 nm LED, pulse rate 80 cps): 18.70 μg/cm^2/24 hrs
- % Permeation (percent increase or decrease vs dark baseline, equation 1) (390 nm, 24 cps vs Dark): 42.85%
- % Permeation (percent increase or decrease vs dark baseline, equation 1) (390 nm, 80 cps vs Dark): 108.47%
- % Permeation (percent increase or decrease vs dark baseline, equation 1) [5]: −44.16%
- % Permeation (percent increase or decrease vs dark baseline, equation 1) [6]: 101.11%
- Permeation (405 + TiO2, pulse rate 24 cps): 6.36 μg/cm^2/24 hrs
- Permeation (405 + TiO2, pulse rate 80 cps): 19.99 μg/cm^2/24 hrs
- Permeation (405 nm LED, pulse rate 24 cps): 12.32 μg/cm^2/24 hrs
- Permeation (405 nm LED, pulse rate 80 cps): 19.89 μg/cm^2/24 hrs
- % Permeation (percent increase or decrease vs dark baseline, equation 1) (405 nm, 24 cps vs Dark): −18.03%
- % Permeation (percent increase or decrease vs dark baseline, equation 1) (405 nm, 80 cps vs Dark): 121.74%
- % Permeation (percent increase or decrease vs dark baseline, equation 1) [7]: −33.98%
- % Permeation (percent increase or decrease vs dark baseline, equation 1) [8]: 48.29%
- Permeation (450 + TiO2, pulse rate 24 cps): 7.52 μg/cm^2/24 hrs
- Permeation (450 + TiO2, pulse rate 80 cps): 14.74 μg/cm^2/24 hrs
- Permeation (450 nm LED, pulse rate 24 cps): 9.51 μg/cm^2/24 hrs
- Permeation (450 nm LED, pulse rate 80 cps): 17.39 μg/cm^2/24 hrs
- % Permeation (percent increase or decrease vs dark baseline, equation 1) (450 nm, 24 cps vs Dark): −36.73%
- % Permeation (percent increase or decrease vs dark baseline, equation 1) (450 nm, 80 cps vs Dark): 93.87%
- Permeation Dark (Dark control): 37.24 μg/0.64 cm^2/25 hrs
- Permeation (Dark control, 24 cps series): 15.03 μg/cm^2/24 hrs
- Permeation (Dark control, 80 cps series): 8.97 μg/cm^2/24 hrs
- Permeation [9]: 11.39 μg/cm^2/24 hrs
- Permeation [10]: 9.94 μg/cm^2/24 hrs
- Permeation [11]: 8.27 μg/cm^2/24 hrs
- Permeation [12]: 11.32 μg/cm^2/24 hrs
- % Permeation (percent increase or decrease vs dark baseline, equation 1) (Day vs Dark, 24 cps series): −44.98%
- % Permeation (percent increase or decrease vs dark baseline, equation 1) (Day vs Dark, 80 cps series): 26.20%
- Permeation [13]: 11.11 μg/cm^2/24 hrs
- Permeation [14]: 13.64 μg/cm^2/24 hrs
- % Permeation (percent increase or decrease vs dark baseline, equation 1) [15]: −2.55%
- % Permeation (percent increase or decrease vs dark baseline, equation 1) [16]: 37.22%
- 405/1.7 (405 nm): 23.21
- 405/9.7 (405 nm): 91.68
- 405/24 (405 nm): 48.83
- Ctrl (Table 10 peptides): 35.26
- Permeation Ctrl: 35.26 μg/0.64 cm^2/25 hrs
- Permeation Ctrl-TiO2: 41.18 μg/0.64 cm^2/25 hrs
SMILES: CC(C)[C@H](N)C(=O)N[C@@H](Cc1ccc(O)cc1)C(=O)N[C@H](C(=O)O)C(C)C [Compound 12, Val-Tyr-Val]

- Permeation Dark (Dark control): 0.00 μg/0.64 cm^2/25 hrs
- Ctrl (Table 7 (350 nm series)): 263.48
- Ctrl-TiO2 (Table 7 (350 nm series)): 260.00
- Ctrl-TiO2/1.7: 289.57
- Ctrl-TiO2/9.7: 312.06
- Ctrl-TiO2/24: 180.88
- 350/1.7 (350 nm): 160.87
- 350/9.7 (350 nm): 0.00
- 350/24 (350 nm): 151.00
SMILES: CCCCCCCCCCCCCCCC(=O)OC[C@H](O)[C@H]1OC(=O)C(O)=C1O [Compound 4, Ascorbyl palmitate]

- Ctrl (Table 7 (350 nm series)): 147.49
- Ctrl-TiO2 (Table 7 (350 nm series)): 67.01
- Ctrl (Table 8 (405 nm series)): 557.96
- Ctrl-TiO2 (Table 8 (405 nm series)): 127.25
SMILES: O=C1O[C@H]([C@@H](O)CO)C(O)=C1O [Compound 3, Ascorbic Acid]

Source: US7854753B2, “Photokinetic delivery of biologically active substances using pulsed incoherent light” (Photokinetix, Inc., priority 2002, dated 2010)
